The term melting point denotes the temperature, or range, at which the solid turns liquid.

The structures appear in SMILES notation.

For the molecule `CN(C)c1ccc(C2Nn3c(nnc3-c3ccc([N+](=O)[O-])cc3)S2)cc1` (stereo unspecified), the melting point came to 176 °C. Under `N#C/C(=C\c1ccc(Cl)cc1)c1nc(-c2cccc3ccccc23)cs1` stands 130 °C.

`CC1(C)C(C=C(Cl)C(F)(F)F)C1C(=O)O` (stereo unspecified) registered a melting point of 108 °C.

`CCCN(CCC)c1c([N+](=O)[O-])cc(C)cc1[N+](=O)[O-]` returned a melting point of 80 °C. `Cc1oc(-c2ccccc2)nc1C(=O)Cl` had a melting point of 135 to 136 °C.

As to `O=C(N[C@@H](C(=O)O)c1ccccc1)OCC(Cl)(Cl)Cl`, the melting point was 141 to 142 °C. Under `CCOc1ccc(C(=S)N2CCOCC2)cc1OC` stands 119 °C. The molecule `O=C(NCCc1cc([N+](=O)[O-])c(CCNC(=O)c2ccccc2)c([N+](=O)[O-])c1)c1ccccc1` displayed a melting point of 217 °C. The result for `C1=CCC=C1` reads -85 °C; that for `COc1ccc2c(c1)CC(c1ccc([N+](=O)[O-])cc1)OC2=O` (stereo unspecified), 176 °C. Under `O=C1OS(=O)(=O)c2ccccc21` stands 130 °C.

In turn, `CC(=O)N1C(=O)/C(=C/c2ccccc2)c2cc3c(cc21)N(C(C)=O)C(=O)/C3=C/c1ccccc1` registered a melting point of 256 °C.

As for `COc1cc(C)c(C=O)c(OC)c1`, the melting point turned out to be 65 °C. The result for `COc1ccc(-c2onc(C(=O)c3cccs3)c2S(=O)(=O)c2ccccc2)cc1` reads 120 °C. Under `Cc1ncc(S(=O)(=O)C(C)(C)C)c(N)n1` stands 163 to 166 °C; under `CC(C)(C)c1cc(C#N)cc(C(C)(C)C)c1O`, 144 to 146 °C. The result for `O=S1(=O)CCCCO1` reads 13.5 °C; that for `O=C(O)c1cc(I)ccc1F`, 163 °C; that for `CC(=O)NCCSC(C)=O`, 32.5 °C. Molecule `O=C(O)c1cc(F)cc(Br)c1` came in with a melting point of 143 °C.

In turn, `CC(O)c1ccc(N)cc1` (stereo unspecified) registered a melting point of 70 °C.

`Cc1cccc2c1CC2=O` registered a melting point of 56 °C.

`CCCCCCCCCCCCCCCCCC(=O)OCC(COC(=O)CCCCCCCCCCCCCCCCC)OC(=O)CCCCCCCCCCCCCCCCC`: the melting point came out at 55 °C. The result for `CC(=O)Oc1ccc(OC(C)=O)c(C)c1` reads 41 °C; that for `CN(C)CCN(C)CCN(C)C`, 18 °C. The result for `Clc1ccc2ccccc2c1Cl` reads 36 °C; that for `CCOC(=O)C(C#N)=C(N)c1cc2ccccc2oc1=O`, 247 to 249 °C; that for `COc1ccc(C(O)(c2ccccc2OC)c2ccc(OC)cc2OC)c(OC)c1`, 137 °C. Under `O=Cc1ccc(F)c(Br)c1` stands 31 °C. In turn, `O=C(O)c1ccc(-c2ccsc2)cc1` showed a melting point of 282 to 283 °C.

Take `CC(=O)N1C(=O)N2CCc3ccccc3C2(c2ccc(Cl)cc2)C1=O` (stereo unspecified): the melting point lay in the range of 135 to 136 °C. Under `Cc1ccc(S(=O)(=O)OCC(C)OS(=O)(=O)c2ccc(C)cc2)cc1` (stereo unspecified) stands 68 to 70 °C; under `COc1cc2c(N)nc(N3CCN(C(=O)OCC(C)(C)O)CC3)nc2c(OC)c1OC`, 158 °C.

Consider `Oc1ccc(O)c2c1C1CCC2C1`, for which the melting point was 172 to 178 °C. Regarding `Brc1ccc2c(c1)CNCC2`, the melting point came out at 34 °C. The result for `CCCCCCCCCCCCCCCCCBr` reads 32 °C; that for `Nc1ccc(Cl)cc1C(=O)c1cccc(O)c1`, 190 to 192 °C. Under `O=C(CBr)c1ccc(-c2ccsc2)cc1` stands 113 to 115 °C; under `OC1OC(C2COC3(CCCCC3)O2)C2OC3(CCCCC3)OC12` (stereo unspecified), 120 to 124 °C; under `Sc1nccn1-c1cc(Cl)ccc1Cl`, 273 °C. The result for `CCCCCF` reads -120 °C; that for `OCCNc1nccnc1Cl`, 54 to 58 °C. In turn, `O=C(O)c1ccccc1CCc1ccccc1` came in with a melting point of 127 to 132 °C. The result for `Nc1cnc2ccccc2c1N` reads 183 to 185 °C; that for `c1ccc(-c2cccc(-c3ccccc3)n2)cc1`, 78 °C. The result for `CC(=O)N(C)c1cccc(-c2ccc3nnc(C)n3n2)c1` reads 200 to 201 °C; that for `COc1ccc(N(C)C(=S)Cl)cc1`, 70 to 72 °C; that for `c1ccc2c(c1)NC1(CCCCC1)O2`, 243 °C. The result for `CCOc1ccc(-c2nnc3n2NCS3)cc1` reads 118 to 120 °C; that for `CNC(=O)C(C)SCCSP(=O)(OC)OC` (stereo unspecified), 43 °C; that for `NS(=O)(=O)c1cc([N+](=O)[O-])c(Cl)s1`, 160 to 162 °C.

The molecule `CN1CCN(c2ccccc2C=O)CC1` displayed a melting point of 44 to 48 °C. Under `CN(C)C(=S)N(C)C` stands 79.3 °C; under `Cc1nc([N+](=O)[O-])cn1CCC#N`, 115 °C. Consider `O=C(O)c1cc(=O)c2ccccc2o1`, for which the melting point amounted to 260 °C. The result for `O=C(O)[C@@H]1Cc2ccccc2CN1C(=O)OCc1ccccc1` reads 137 to 141 °C; that for `O=[N+]([O-])c1cccc(CS(=O)(=O)Cl)c1`, 99 °C; that for `CC(N)C(O)c1ccccc1` (stereo unspecified), 192 °C. The result for `O=Cc1cccc2cccnc12` reads 93 °C; that for `CC/C(=N\NC(N)=O)C1CC2(C)CCC1C2(C)C` (stereo unspecified), 222 °C. The result for `CC(C)C1CC(=O)CC(=O)C1` reads 80 °C. With `Cc1c(F)c(F)c(C)c(F)c1F`, the melting point amounted to 36 °C.

In turn, `CC(=O)OC1CC2(C)C(CC(O)C3C4(C)CCC(O)C(C)C4CCC32C)C1=C(CCC=C(C)C)C(=O)O` (stereo unspecified) yielded a melting point of 192 °C. Under `ON=C(CBr)c1ccc(F)cc1` stands 84 to 90 °C; under `O=[N+]([O-])c1ccccc1SC1OC(CO)C(O)C(O)C1O` (stereo unspecified), 196 to 203 °C; under `CC(=O)C=CC=Cc1ccccc1`, 68 °C. Under `Clc1cc2c(oc3c(Cl)cccc32)c(Cl)c1Cl` stands 190 °C; under `CCOC(=O)C1=C(NC(=O)c2ccco2)Oc2c(c(=O)oc3ccccc23)C1c1ccc(Br)cc1` (stereo unspecified), 140 °C.

In the case of `Cc1nc2ccccc2n1CC(=O)O`, the melting point lay within 260 to 262 °C. For `CSc1ccc(CO)cc1`, the melting point is 42 °C.

Molecule `COc1cc(C=C2SC(=S)N(CNc3ccc([N+](=O)[O-])cc3)C2=O)ccc1O` came in with a melting point of 195 °C. The result for `CC(=O)OC[C@H]1O[C@@H](OC(C)=O)[C@H](OC(C)=O)[C@@H]1OC(C)=O` reads 79 to 81 °C. Under `CC(=C/C=N/NC(N)=O)C(C)(C)C` stands 148 °C; under `CC1=C(C#N)Cc2ccccc21`, 63 to 63.6 °C.

With `O=C(O)Cc1ccc(CC(=O)O)cc1`, the melting point is 254 °C. The result for `CC1(C)C2CCC1(C)C(C(=O)O)C2CC(O)c1ccccc1` (stereo unspecified) reads 119 °C. The result for `COC(=O)CCCCCCC(=O)O` reads 17 to 19 °C; that for `COC(=O)c1scc(S(C)(=O)=O)c1-n1cccc1`, 124 to 126 °C. The result for `O=C(O)c1ccc(-c2ccncc2)cc1` reads 300 °C.

Regarding `C=C1C(=O)OC2CC3(C)CCCC(C)C3=CC12` (stereo unspecified), the melting point was determined as 76 °C.

With `CCC1CN2CCc3cc(OC)c(OC)cc3C2CC1CC1NCCc2cc(O)c(OC)cc21` (stereo unspecified), the melting point stood at 116 °C.

Molecule `c1ccc2c(c1)OCCOCCOCCOCCOCCO2` displayed a melting point of 40 to 45 °C. The result for `Nc1c(Br)cc(F)cc1Br` reads 65 °C; that for `COC1OC(=O)c2ccccc21` (stereo unspecified), 43.7 to 44.4 °C; that for `O=C(O)c1ccc(C(=O)O)c([N+](=O)[O-])c1`, 270 to 272 °C. Under `NC1=NCC(c2ccccc2)O1` (stereo unspecified) stands 136 °C; under `OCc1cccc(OCCN2CCOCC2)c1`, 55 to 60 °C.

The molecule `NC(=O)c1cccc2c1OCCO2` had a melting point of 130 to 132 °C.

In turn, `CCC(COC(=O)c1cc(OC)c(OC)c(OC)c1)(c1ccccc1)N(C)C` (stereo unspecified) gave a melting point of 79 °C. For the molecule `NC(CO)CO`, the melting point was found to be 54 °C.

In turn, `CC(/C=C/c1ccccc1)=C\C(C)=N\Nc1ccc([N+](=O)[O-])cc1[N+](=O)[O-]` showed a melting point of 232 to 234 °C. The result for `C#CC1(O)CCC2C3CCC4=Cc5oncc5CC4(C)C3CCC21C` (stereo unspecified) reads 235 °C; that for `OCCCCCCCCl`, 11 °C. `OCC#CCO`: the melting point worked out at 56 °C. Regarding `Cc1ccc(O)c(Cl)c1C`, the melting point turned out to be 27 °C.

`COc1ccc(C2Cc3ccccc3C(O)O2)cc1` (stereo unspecified) gave a melting point of 114 °C. Under `C=C(C)C(=O)OCCC(F)(F)C(F)(F)C(F)(F)C(F)(F)C(F)(F)C(F)(F)C(F)(F)C(F)(F)C(F)(F)C(F)(F)F` stands 45 to 50 °C; under `N#CCc1ccccc1C#N`, 73 to 79 °C. The result for `COc1c(Cl)c(Cl)c(Cl)c(Cl)c1Cl` reads 108 °C; that for `CCOC(=O)c1c[nH]c2c(F)cccc2c1=O`, 205 to 210 °C.

As for `Nc1cccnc1Br`, the melting point came to 77 °C.

Take `Cc1nc(-c2ccc(CO)cc2)no1`: the melting point was in the range of 131 to 132 °C.

In turn, `CCOC(=O)c1ccc(N2C(=O)CCC2=O)cc1` came in with a melting point of 158 to 160 °C.

With `C=COC(C)=O`, the melting point was -93.2 °C. Consider `CCC(CC)C(N)CC(=O)O` (stereo unspecified), for which the melting point is 213 to 214 °C.

Regarding `O=C(O)C(CO)c1ccccc1` (stereo unspecified), the melting point was determined as 118 °C. The result for `CC1(C)CNC(=NN=C(C=Cc2ccc(C(F)(F)F)cc2)C=Cc2ccc(C(F)(F)F)cc2)NC1` reads 188 °C; that for `Nc1ncnc2c1ncn2C1(CO)OC(CO)C(O)C1O` (stereo unspecified), 212 °C; that for `Nc1cc(Cl)cc(C(=O)O)c1Cl`, 200 °C. Under `CCc1nc(C)c(C=O)[nH]1` stands 104 to 105 °C. `CC(C)(C)SSC(C)(C)C` returned a melting point of -5 °C.

These data come from a melting point compilation (Tetko et al.).
